In paper PMC5428509, “Irreversible inhibition of BTK kinase by a novel highly selective inhibitor CHMFL-BTK-11 suppresses inflammatory response in rheumatoid arthritis model” (Scientific Reports, 2017):

Key:
Assay in all cases: biochemical
Design in all cases: KinomeScan competition binding panel (DiscoveRx), percent of control at 1 uM
Conditions in all cases: read-out: Percent Control
[1] = molecular target: ACVR2B (Homo sapiens, UniProt Q13705)
Summary of the method: (§1)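 Selectivity profiled across 456 kinases/mutants by KinomeScan binding technology.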

[2] = molecular target: ANKK1 (Homo sapiens, UniProt Q8NFD2)
Summary of the method: as §1

[3] = molecular target: BMX (Homo sapiens, UniProt P51813)
Summary of the method: as §1

[4] = molecular target: CAMK1 (Homo sapiens, UniProt Q14012)
Summary of the method: as §1

[5] = molecular target: CAMK1D (Homo sapiens, UniProt Q8IU85)
Summary of the method: as §1

[6] = molecular target: CSNK2A1 (Homo sapiens, UniProt P68400)
Summary of the method: as §1

[7] = molecular target: T1, CTK (Homo sapiens, UniProt P42679)
T1 construct: gene MATK
Summary of the method: as §1

[8] = molecular target: EGFR(L747-T751del,Sins) (Homo sapiens, UniProt P00533, DEL747-750/T751S)
Sequence of EGFR(L747-T751del,Sins) (P00533 with tags, fused parts or gaps DEL747-750/T751S): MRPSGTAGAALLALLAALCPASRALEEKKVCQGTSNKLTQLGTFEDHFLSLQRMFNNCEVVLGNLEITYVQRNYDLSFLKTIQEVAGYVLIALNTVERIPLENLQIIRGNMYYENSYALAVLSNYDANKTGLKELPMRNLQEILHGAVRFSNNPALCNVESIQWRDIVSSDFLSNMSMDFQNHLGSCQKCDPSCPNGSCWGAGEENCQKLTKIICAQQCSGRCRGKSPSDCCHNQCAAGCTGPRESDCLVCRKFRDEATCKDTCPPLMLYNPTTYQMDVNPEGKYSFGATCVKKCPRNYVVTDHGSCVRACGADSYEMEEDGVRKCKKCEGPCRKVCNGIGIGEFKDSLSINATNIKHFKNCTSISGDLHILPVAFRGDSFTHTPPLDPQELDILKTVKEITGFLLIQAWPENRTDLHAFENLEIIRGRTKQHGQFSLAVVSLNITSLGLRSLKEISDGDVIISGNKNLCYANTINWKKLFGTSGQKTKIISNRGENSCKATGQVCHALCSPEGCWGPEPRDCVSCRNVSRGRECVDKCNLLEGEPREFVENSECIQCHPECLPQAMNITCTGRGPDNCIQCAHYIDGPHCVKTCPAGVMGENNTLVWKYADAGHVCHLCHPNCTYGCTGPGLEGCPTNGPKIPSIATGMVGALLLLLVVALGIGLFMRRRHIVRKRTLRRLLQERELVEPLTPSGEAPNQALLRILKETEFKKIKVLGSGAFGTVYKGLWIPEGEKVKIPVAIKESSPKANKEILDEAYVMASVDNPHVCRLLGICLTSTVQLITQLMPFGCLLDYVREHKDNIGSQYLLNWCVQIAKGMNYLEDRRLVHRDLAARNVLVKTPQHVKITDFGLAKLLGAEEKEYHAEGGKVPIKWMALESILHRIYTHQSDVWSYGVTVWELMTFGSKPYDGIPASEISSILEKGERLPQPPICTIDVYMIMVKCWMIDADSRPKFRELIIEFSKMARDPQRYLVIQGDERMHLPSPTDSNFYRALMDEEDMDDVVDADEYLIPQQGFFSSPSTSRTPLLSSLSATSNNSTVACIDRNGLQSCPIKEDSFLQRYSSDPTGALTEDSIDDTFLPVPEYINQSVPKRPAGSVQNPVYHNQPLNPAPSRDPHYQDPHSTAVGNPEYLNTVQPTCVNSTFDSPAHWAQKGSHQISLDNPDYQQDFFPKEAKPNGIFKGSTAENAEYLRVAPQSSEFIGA
Summary of the method: as §1

[9] = molecular target: FGFR1 (Homo sapiens, UniProt P11362)
Summary of the method: as §1

[10] = molecular target: HIPK1 (Homo sapiens, UniProt Q86Z02)
Summary of the method: as §1

[11] = molecular target: T2, JNK3 (Homo sapiens, UniProt P53779)
T2 construct: gene MAPK10
T2 sequence (P53779 whole entry): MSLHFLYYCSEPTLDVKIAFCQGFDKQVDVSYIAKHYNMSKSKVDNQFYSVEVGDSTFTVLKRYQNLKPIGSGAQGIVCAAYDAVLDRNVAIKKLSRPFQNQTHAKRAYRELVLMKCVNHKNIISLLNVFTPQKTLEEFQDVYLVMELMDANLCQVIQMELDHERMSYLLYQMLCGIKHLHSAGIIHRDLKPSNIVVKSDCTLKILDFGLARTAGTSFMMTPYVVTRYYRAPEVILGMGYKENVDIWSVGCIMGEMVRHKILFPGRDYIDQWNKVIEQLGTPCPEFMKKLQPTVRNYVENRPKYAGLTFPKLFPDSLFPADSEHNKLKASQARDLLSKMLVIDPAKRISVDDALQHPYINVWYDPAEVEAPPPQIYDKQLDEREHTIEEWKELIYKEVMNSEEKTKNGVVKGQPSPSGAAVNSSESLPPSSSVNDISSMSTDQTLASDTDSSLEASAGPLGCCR
Summary of the method: as §1

[12] = molecular target: KIT (Homo sapiens, UniProt P10721)
Summary of the method: as §1

[13] = molecular target: LRRK2 (Homo sapiens, UniProt Q5S007)
Sequence of LRRK2 (Q5S007 whole entry): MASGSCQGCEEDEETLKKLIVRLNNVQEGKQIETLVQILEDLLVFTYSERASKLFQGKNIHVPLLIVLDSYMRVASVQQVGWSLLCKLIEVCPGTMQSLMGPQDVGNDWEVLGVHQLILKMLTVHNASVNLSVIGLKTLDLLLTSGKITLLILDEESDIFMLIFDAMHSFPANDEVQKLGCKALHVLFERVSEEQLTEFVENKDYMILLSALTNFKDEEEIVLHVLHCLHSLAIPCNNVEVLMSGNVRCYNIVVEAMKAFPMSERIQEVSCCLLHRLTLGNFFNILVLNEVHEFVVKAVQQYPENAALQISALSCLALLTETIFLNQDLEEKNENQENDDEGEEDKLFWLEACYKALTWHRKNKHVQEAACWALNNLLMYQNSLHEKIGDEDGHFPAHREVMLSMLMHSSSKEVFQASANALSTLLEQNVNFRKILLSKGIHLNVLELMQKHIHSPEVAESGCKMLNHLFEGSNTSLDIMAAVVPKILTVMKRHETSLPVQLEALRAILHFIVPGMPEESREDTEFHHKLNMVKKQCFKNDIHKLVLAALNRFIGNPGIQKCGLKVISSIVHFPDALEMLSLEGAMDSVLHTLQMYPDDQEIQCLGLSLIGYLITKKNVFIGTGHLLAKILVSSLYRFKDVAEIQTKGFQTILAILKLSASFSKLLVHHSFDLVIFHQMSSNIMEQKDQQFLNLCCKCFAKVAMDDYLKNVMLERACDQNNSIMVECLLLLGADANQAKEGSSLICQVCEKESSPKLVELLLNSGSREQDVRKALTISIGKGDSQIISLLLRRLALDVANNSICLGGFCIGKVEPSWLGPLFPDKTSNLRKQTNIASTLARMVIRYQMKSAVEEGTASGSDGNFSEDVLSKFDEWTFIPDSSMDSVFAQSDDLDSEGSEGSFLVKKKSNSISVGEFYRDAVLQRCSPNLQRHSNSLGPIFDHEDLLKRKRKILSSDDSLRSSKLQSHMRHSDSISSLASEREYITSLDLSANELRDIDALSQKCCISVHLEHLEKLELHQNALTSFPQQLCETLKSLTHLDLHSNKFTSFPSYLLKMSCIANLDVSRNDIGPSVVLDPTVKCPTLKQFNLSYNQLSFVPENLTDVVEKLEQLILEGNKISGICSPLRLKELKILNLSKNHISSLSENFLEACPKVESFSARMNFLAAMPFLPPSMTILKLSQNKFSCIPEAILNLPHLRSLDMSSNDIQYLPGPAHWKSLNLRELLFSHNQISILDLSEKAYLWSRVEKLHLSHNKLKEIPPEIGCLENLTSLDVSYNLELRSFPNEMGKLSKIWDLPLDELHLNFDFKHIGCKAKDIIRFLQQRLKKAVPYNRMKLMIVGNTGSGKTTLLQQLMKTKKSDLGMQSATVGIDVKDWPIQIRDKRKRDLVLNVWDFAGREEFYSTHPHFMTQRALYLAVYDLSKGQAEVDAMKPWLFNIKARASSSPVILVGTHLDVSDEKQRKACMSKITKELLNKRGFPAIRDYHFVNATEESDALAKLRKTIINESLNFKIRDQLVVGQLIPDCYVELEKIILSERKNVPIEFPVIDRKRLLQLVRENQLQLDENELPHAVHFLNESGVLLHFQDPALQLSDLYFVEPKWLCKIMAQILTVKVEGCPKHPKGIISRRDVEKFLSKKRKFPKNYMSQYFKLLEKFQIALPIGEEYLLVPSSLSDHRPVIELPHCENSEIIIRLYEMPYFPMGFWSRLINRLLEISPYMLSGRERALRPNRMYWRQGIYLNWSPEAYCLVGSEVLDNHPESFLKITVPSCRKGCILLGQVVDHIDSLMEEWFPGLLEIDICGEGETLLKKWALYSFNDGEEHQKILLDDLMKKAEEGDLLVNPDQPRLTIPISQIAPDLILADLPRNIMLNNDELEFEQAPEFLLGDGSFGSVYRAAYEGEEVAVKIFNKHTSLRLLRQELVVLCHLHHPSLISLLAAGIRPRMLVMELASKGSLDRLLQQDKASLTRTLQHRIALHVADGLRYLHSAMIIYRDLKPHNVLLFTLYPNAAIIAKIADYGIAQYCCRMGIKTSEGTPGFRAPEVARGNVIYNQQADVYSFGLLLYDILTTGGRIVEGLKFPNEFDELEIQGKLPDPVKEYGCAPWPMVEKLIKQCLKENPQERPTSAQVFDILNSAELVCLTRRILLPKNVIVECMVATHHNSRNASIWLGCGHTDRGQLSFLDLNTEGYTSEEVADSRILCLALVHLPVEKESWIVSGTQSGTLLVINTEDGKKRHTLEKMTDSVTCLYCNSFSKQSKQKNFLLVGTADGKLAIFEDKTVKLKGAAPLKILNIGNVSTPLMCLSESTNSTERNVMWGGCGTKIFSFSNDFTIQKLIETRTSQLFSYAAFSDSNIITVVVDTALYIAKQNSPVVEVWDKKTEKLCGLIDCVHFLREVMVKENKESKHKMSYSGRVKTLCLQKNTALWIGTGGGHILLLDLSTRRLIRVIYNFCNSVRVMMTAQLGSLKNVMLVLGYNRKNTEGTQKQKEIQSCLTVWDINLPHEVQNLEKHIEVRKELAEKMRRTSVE
Summary of the method: as §1

[14] = molecular target: MAP3K2 (Homo sapiens, UniProt Q9Y2U5)
Summary of the method: as §1

[15] = molecular target: MAP3K4 (Homo sapiens, UniProt Q9Y6R4)
Summary of the method: as §1

[16] = molecular target: MYLK (Homo sapiens, UniProt Q15746)
Summary of the method: as §1

[17] = molecular target: MYO3A (Homo sapiens, UniProt Q8NEV4)
Summary of the method: as §1

[18] = molecular target: T3, NIK (Homo sapiens, UniProt Q99558)
T3 construct: gene MAP3K14
Summary of the method: as §1

[19] = molecular target: PIK3CD (Homo sapiens, UniProt O00329)
Summary of the method: as §1

[20] = molecular target: PIP5K1A (Homo sapiens, UniProt Q99755)
Summary of the method: as §1

[21] = molecular target: RIPK1 (Homo sapiens, UniProt Q13546)
Summary of the method: as §1

[22] = molecular target: T4, RIPK5 (Homo sapiens, UniProt Q6XUX3)
T4 construct: gene DSTYK
T4 sequence (Q6XUX3 whole entry): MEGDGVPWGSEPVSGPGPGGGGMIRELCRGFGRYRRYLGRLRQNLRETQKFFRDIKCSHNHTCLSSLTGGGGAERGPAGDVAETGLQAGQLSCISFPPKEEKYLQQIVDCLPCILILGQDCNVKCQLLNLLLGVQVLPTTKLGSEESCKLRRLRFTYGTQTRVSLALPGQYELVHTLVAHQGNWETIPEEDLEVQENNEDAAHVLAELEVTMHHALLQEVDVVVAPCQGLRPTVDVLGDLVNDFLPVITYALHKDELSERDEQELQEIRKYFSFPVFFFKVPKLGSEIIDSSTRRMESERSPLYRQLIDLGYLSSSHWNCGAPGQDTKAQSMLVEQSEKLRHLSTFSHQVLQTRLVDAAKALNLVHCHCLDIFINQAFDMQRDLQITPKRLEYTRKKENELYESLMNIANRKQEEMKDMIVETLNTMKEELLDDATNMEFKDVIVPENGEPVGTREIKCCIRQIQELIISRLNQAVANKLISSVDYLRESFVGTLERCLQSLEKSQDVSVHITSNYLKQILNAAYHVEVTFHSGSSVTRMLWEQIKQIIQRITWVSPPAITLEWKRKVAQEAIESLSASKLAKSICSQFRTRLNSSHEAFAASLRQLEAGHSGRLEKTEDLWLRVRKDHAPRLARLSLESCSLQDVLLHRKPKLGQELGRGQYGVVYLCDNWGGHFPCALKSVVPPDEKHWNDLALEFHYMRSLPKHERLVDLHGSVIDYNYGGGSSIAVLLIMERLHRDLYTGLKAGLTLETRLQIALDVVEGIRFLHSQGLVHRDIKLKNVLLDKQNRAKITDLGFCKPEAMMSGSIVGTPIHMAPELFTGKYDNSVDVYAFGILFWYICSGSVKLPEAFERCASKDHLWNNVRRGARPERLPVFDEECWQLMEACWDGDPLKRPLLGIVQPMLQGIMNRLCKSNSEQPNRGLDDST
Summary of the method: as §1

[23] = molecular target: ROCK2 (Homo sapiens, UniProt O75116)
Summary of the method: as §1

[24] = molecular target: SLK (Homo sapiens, UniProt Q9H2G2)
Summary of the method: as §1

[25] = molecular target: T5, p38-alpha (Homo sapiens, UniProt Q16539)
T5 construct: gene MAPK14
Summary of the method: as §1

C=CC(=O)Nc1cc(-n2c(=O)ccc3cnc4ccc(-n5cccn5)cc4c32)ccc1C [CHMFL-BTK-11]
remaining binding at 1 µM [1]: 95% | remaining binding at 1 µM [2]: 81% | remaining binding at 1 µM [3]: 23% | remaining binding at 1 µM [4]: 98% | remaining binding at 1 µM [5]: 100% | remaining binding at 1 µM [6]: 92% | remaining binding at 1 µM [7]: 65% | remaining binding at 1 µM [8]: 77% | remaining binding at 1 µM [9]: 88% | remaining binding at 1 µM [10]: 79% | remaining binding at 1 µM [11]: 100% | remaining binding at 1 µM [12]: 100% | remaining binding at 1 µM [13]: 96% | remaining binding at 1 µM [14]: 99% | remaining binding at 1 µM [15]: 97% | remaining binding at 1 µM [16]: 82% | remaining binding at 1 µM [17]: 100% | remaining binding at 1 µM [18]: 100% | remaining binding at 1 µM [19]: 100% | remaining binding at 1 µM [20]: 100% | remaining binding at 1 µM [21]: 90% | remaining binding at 1 µM [22]: 99% | remaining binding at 1 µM [23]: 97% | remaining binding at 1 µM [24]: 100% | remaining binding at 1 µM [25]: 76%
